Test results published in article PMC10663540, “Structure-based discovery of dual pathway inhibitors for SARS-CoV-2 entry” (Nature Communications, 2023).
Several values for one entry are separate records, joined by “and”; a condition that tells them apart may be missing. Equal values may be shown once. Read-outs that look alike come from different tables or passages of the source.

Columns and labels:
Calu-3 cells = details: rep1-rep3
in vitro = details: human
human CTSL = molecular target: T1, human CTSL (Homo sapiens, UniProt P07711); assay: FRET enzymatic inhibition assay of CTSL (IC50 measurement); assay type: biochemical; details: rep1-rep4
T1 construct: made in house
T1 sequence (P07711 114-333): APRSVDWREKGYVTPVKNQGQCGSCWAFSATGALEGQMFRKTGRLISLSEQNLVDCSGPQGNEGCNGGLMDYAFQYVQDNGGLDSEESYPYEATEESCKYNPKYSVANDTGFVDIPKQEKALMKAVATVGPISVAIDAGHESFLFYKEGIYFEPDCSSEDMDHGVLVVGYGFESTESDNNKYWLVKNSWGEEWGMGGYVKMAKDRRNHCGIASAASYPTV

For CN1CCN(C(=O)N[C@@H](Cc2ccccc2)C(=O)N[C@H](/C=C/S(=O)(=O)c2ccccc2)CCc2ccccc2)CC1 [K777], the Cytotoxicity (Calu-3 cells; 0.017 μM) was 8.99% and 10.05% and 10.29%, the Cytotoxicity (Calu-3 cells; 0.05 μM) was 20.39% and 20.63% and 20.94% and the Cytotoxicity (Calu-3 cells; 0.15 μM) was 17.33% and 17.61% and 17.94%. For the same compound, the Cytotoxicity (Calu-3 cells; 0.46 μM) was 15.43% and 15.73% and 16.02%, the Cytotoxicity (Calu-3 cells; 4.1 μM) was 16.54% and 16.77% and 16.98% and the Cytotoxicity (Calu-3 cells; 12.3 μM) was 18.57% and 18.78% and 19.05%. The Cytotoxicity (Calu-3 cells; 37 μM) was 15.46% and 15.63% and 15.88%, the Cytotoxicity (Calu-3 cells; 111.1 μM) was 60.74% and 60.66% and 60.71% and the Cytotoxicity (Calu-3 cells; 333.3 μM) was 97.79% and 97.81%. The Cytotoxicity (Calu-3 cells; 1000 μM) was 99.56%, the CC50 (in vitro) was 110 µM and the “Inhibition: CTSL” value (human CTSL; 0.0762939 nM, 7.62939e-05 µM) was 1.13% and 5.78% and 3.59% and 2.15%. The inhibition at 0.000152588 µM (human CTSL; 0.152588 nM) was 5.42%, the “Inhibition: CTSL” value (human CTSL; 0.152588 nM, 0.000152588 µM) was 10.09% and 6.36% and 10.80% and the inhibition at 0.000610352 µM (human CTSL; 0.610352 nM) was 9.96%. For the same compound, the “Inhibition: CTSL” value (human CTSL; 0.610352 nM, 0.000610352 µM) was 11.08% and 11.88% and 12.12%, the inhibition at 0.0012207 µM (human CTSL; 1.2207 nM) was 14.1% and the “Inhibition: CTSL” value (human CTSL; 1.2207 nM, 0.0012207 µM) was 15.17% and 15.67% and 15.23%. The inhibition at 0.00244141 µM (human CTSL; 2.44141 nM) was 27.1%, the “Inhibition: CTSL” value (human CTSL; 2.44141 nM, 0.00244141 µM) was 29.89% and 27.84% and 28.16% and the inhibition at 0.00488281 µM (human CTSL; 4.88281 nM) was 46.7%. The “Inhibition: CTSL” value (human CTSL; 4.88281 nM, 0.00488281 µM) was 49.46% and 47.59% and 48.29%, the inhibition at 0.00976562 µM (human CTSL; 9.76562 nM) was 73.6% and the “Inhibition: CTSL” value (human CTSL; 9.76562 nM, 0.00976562 µM) was 74.62% and 72.91% and 72.68%. For the same compound, the inhibition at 0.0195312 µM (human CTSL; 19.5312 nM) was 93.2%, the “Inhibition: CTSL” value (human CTSL; 19.5312 nM, 0.0195312 µM) was 93.40% and 92.49% and 94.07% and the inhibition at 0.0390625 µM (human CTSL; 39.0625 nM) was 99.5%. The “Inhibition: CTSL” value (human CTSL; 39.0625 nM, 0.0390625 µM) was 98.76% and 99.78% and 99.61%, the inhibition at 0.078125 µM (human CTSL; 78.125 nM) was 100% and the “Inhibition: CTSL” value (human CTSL; 78.125 nM, 0.078125 µM) was 99.93% and 100.35% and 99.32%. For the same compound, the inhibition at 0.15625 µM (human CTSL; 156.25 nM) was 100%, the “Inhibition: CTSL” value (human CTSL; 156.25 nM, 0.15625 µM) was 100.75% and 100.78% and the inhibition at 0.3125 µM (human CTSL; 312.5 nM) was 100%. For the same compound, the “Inhibition: CTSL” value (human CTSL; 312.5 nM, 0.3125 µM) was 100.44% and 100.24% and 99.50%, the inhibition at 0.625 µM (human CTSL; 625 nM) was 100% and the “Inhibition: CTSL” value (human CTSL; 625 nM, 0.625 µM) was 100.05% and 99.89%. For the same compound, the inhibition at 1.25 µM (human CTSL; 1250 nM) was 100%, the “Inhibition: CTSL” value (human CTSL; 1250 nM, 1.25 µM) was 100.44% and 100.07% and 99.92% and the inhibition at 2.5 µM (human CTSL; 2500 nM) was 100%. The “Inhibition: CTSL” value (human CTSL; 2500 nM, 2.5 µM) was 100.03% and 100.38% and 100.68%, the inhibition at 5 µM (human CTSL; 5000 nM) was 100% and the “Inhibition: CTSL” value (human CTSL; 5000 nM, 5 µM) was 100.04% and 100.18% and 100.13%. The inhibition at 10 µM (human CTSL; 10000 nM) was 100% and the “Inhibition: CTSL” value (human CTSL; 10000 nM, 10 µM) was 100.22% and 100.09% and 99.98%.
With N=C(N)c1ccc2cc(OC(=O)c3ccc(N=C(N)N)cc3)ccc2c1 [Nafamostat] the CC50 (in vitro) was 452 µM.
